Measurements taken from patent publication US10603335B2, “Cancer treatment combination compositions, methods and uses” (Board of Supervisors of Louisiana State University and …, priority 2016, dated 2020).

How the values were obtained:
[1] = tested on: cleaved PARP, XIAP and cIAP2 in MiaPaca-2 cells; assay: Western blot of apoptosis markers and inhibitors of apoptosis, MiaPaca-2; assay type: cell-based, human; settings: for apoptosis marker cleaved PARP: 24 h post-treatment, LHRH-curcumin 10-100 uM, gemcitabine 1-20 uM
Method: Pancreatic cells were collected after trypsinization and seeded in 12-well plates for 24 h before treatments. Treatments were performed as described in the Figure legends. Following treatment, whole cell lysates were collected in Laemmli buffer and analyzed by Western blot. The following primary antibodies were used: XIAP, c-IAP2, cleaved PARP, Caspase-3 (all from Cell Signaling), actin (Santa Cruz) and LHRHR (Abcam).
Western blot analysis. Actin, GAPDH and Ponceau staining were used as loading controls. Gemcitabine was diluted in water. Curcumin and LHRH-curcumin were diluted in DMSO. Cells were treated as follows:
Western blot analysis. Actin, GAPDH and Ponceau staining were used as loading controls. Gemcitabine was diluted in water. Curcumin and LHRH-curcumin were diluted in DMSO. The cells were treated as follows:
Western blot analysis. Actin was used as loading control. Both gemcitabine and LHRH-curcumin were diluted in water.

AsPC-1 spheroids = assay: 3D spheroid growth (IncuCyte ZOOM), AsPC-1; assay type: cell-based; settings: gemcitabine 0.5, 1.0, 5.0 μM, LHRH-curcumin 10, 20 μM, 5 days
Method: Panc-1 and Mia-Paca-2 cells were grown in 10% FBS DMEM. Cells were collected after trypsinization and resuspended in phenol-red free DMEM with 10% FBS. Cells were labeled with CellTracker Red (Life Techmologies) for 5 minutes. After labeling cells were washed with PBS and transfer into 96-well Corning 7007 ULA round bottom plates at 1,000 cells/well in 100 μl phenol-red free media with 10% FBS and 5% Matrigel. […] Spheroids were grown at 37° C. and 5% CO2 in IncuCyte ZOOM (Essen Bioscience). Images were acquired every 4 h for a period of 120 h post-treatment and software analysis was design to identify the red object in the well. The data were expressed as fold increase in spheroids size at the end of the treatment using the “average red object area in the well” as determined by the IncuCyte software analysis. Reproducibility was confirmed in three independent experiments. Spheroids grew at a uniform rate (FIG. 1).
Panc-1, Mia-Paca-2 and AsPC-1 spheroids were formed in 96-well round bottom plates as described. […] Media alone was used as control. The spheroids were grown for 5 days before quantification. Both gemcitabine and LHRH-curcumin were diluted in water.

PATX102 tissue slices = assay: Live Tissue Sensitivity Assay (LTSA), PATX102; assay type: cell-based; settings: 72 hours
Method: (§1) Animal experiment protocol was reviewed and approved by The University of Texas MD Anderson Cancer Center (Houston, Tex.) institutional review board and in accordance with the Guidelines for the Care and Use of Laboratory Animals published by the National Institutes of Health. PDXs were grown from cryopreserved early passages of PDXs in nude mice as described in previous publications (Kim M P, et al, Nat Protoc 2009; 4(11): 1670-80). Briefly, tumor samples stored in CryoStor™ CS10 storage medium were recovered and cut into about 2 mm3 fragments, soaked in Matrigel, and implanted into the subcutaneous space of Balb/c nude mice (5 mice/PDX). Tumors were harvested when they reach 1.5 cm in diameter for generating tissue slices for drug testing with quadruplicates.
(§2) About 100 tissue slices were produced from 1 tumorgraft with tissue slicer and arrayed in 96-well plates with previously established method (Roife D, et al, Clin Cancer Res 2016). […] Same volume of medium with 0.1% DMSO was added into control wells. After 72 hours, tissue viabilities were measured with PrestoBlue method. Viability inhibition will be calculated through normalization of viabilities of tissue slices treated with inhibitor against the viability of control (DMSO treated) slices. Inhibition of viability was further analyzed with t-test. […]

[2] = tested on: cleaved PARP, XIAP and cIAP2 in PATC53 cells; assay: Western blot of apoptosis markers, PATC53; assay type: cell-based
Method: PATC53 cells were treated as described and Western blot was perform in order to detect apoptosis markers (cleaved PARP) and inhibitors of apoptosis (XIAP and cIAP2) 24 h post-treatment. Actin was used as loading controls.
PATC53 cells were treated as presented and Western blot was perform in order to detect apoptosis markers (cleaved PARP) and inhibitors of apoptosis (XIAP and cIAP2) 48 h post-treatment. Actin was used as loading controls.
Pancreatic cancer cells were collected after trypsinization and seeded in 12-well plates for 24 h before treatments. Treatments were performed as described in the Figure legends. Following treatment whole-cell lysates were collected in Laemmli buffer and analyzed by Western blot. The following primary antibodies were used: cleaved PARP, c-IAP2, XIAP, cleaved Parp-1 (all from Cell Signaling), actin (Santa Cruz).

PATX113 tissue slices = assay: Live Tissue Sensitivity Assay (LTSA), PATX113; assay type: cell-based; settings: 72 hours
Method: as §1, §2

PATX110 tissue slices = assay: Live Tissue Sensitivity Assay (LTSA), PATX110; assay type: cell-based; settings: 72 hours
Method: as §1, §2

PATX50 tissue slices = assay: Live Tissue Sensitivity Assay (LTSA), PATX50; assay type: cell-based; settings: 72 hours
Method: as §1, §2

PATX141 tissue slices = assay: Live Tissue Sensitivity Assay (LTSA), PATX141; assay type: cell-based; settings: 72 hours
Method: as §1, §2

PATX173 tissue slices = assay: Live Tissue Sensitivity Assay (LTSA), PATX173; assay type: cell-based; settings: 72 hours
Method: as §1, §2

PATX55 tissue slices = assay: Live Tissue Sensitivity Assay (LTSA), PATX55; assay type: cell-based; settings: 72 hours
Method: as §1, §2

PATX92 tissue slices = assay: Live Tissue Sensitivity Assay (LTSA), PATX92; assay type: cell-based; settings: 72 hours
Method: as §1, §2

[3] = tested on: Mia-PaCa-2 cancer cell xenografts; assay: Mia-PaCa-2 subcutaneous xenograft tumor growth; assay type: in vivo, SCID/bg mice; settings: IP
Method: Male SCID/bg mice (5 weeks old; Taconic Biosciences, NY) were housed in the standard mouse Plexiglas cages in a room maintained at constant temperature and humidity under a 12 h light and darkness cycle. The experimental protocol was reviewed and approved by the Institutional Animal Care and Use Committee at the LSUHSC Shreveport.
Mia-PaCa-2 cells were harvested from cell cultures after trypsinization. The cells were washed once in serum-free medium and re-suspended in HBSS. Only suspensions consisting of single cells with >90% viability were used for the injections. Mice were injected s.c. on the right hind flank with 5×10^6 MIA-PaCa cells (ATCC, VA) in 50% Matrigel/HBSS with 26 Ga syringes.
The vehicle treated group received an equivalent amount of PBS. Tumor volumes were measured with calipers once a week and body weights of mice were measured once a week. Tumor volumes were calculated by the formula: V(mm3)=(length×width*2)/2, in which width was the shortest measurement in millimeters. Mice were necropsied 10 days after the last treatment for the low dose treatment (day 35 after the randomization and day 55 from the tumor cell implantation) or 2 days after the last treatment for high dose treatment (day 28 after the randomization and 48 from the tumor cell implantation). Tumors were dissected, weighed and photographed.

[4] = 24 h, curcumin, LHRH-curcumin 50 uM and 100 uM alone, gemcitabine alone
[5] = high doses: gemcitabine 100 mg/kg once a week, LHRH-curcumin 40 mg/kg twice a week, day 48
[6] = low doses: gemcitabine 50 mg/kg once a week, LHRH-curcumin 20 mg/kg twice a week, day 55

## COc1cc(/C=C/C(=O)CC(=O)/C=C/c2ccc(OC(=O)CCCC(=O)NCCCC[C@@H](NC(=O)[C@H](Cc3ccc(O)cc3)NC(=O)[C@H](CO)NC(=O)[C@H](Cc3c[nH]c4ccccc34)NC(=O)[C@H](Cc3c[nH]cn3)NC(=O)[C@@H]3CCC(=O)N3)C(=O)N[C@@H](CC(C)C)C(=O)N[C@@H](CCCNC(=N)N)C(=O)N3CCC[C@H]3C(=O)NCC(N)=O)c(OC)c2)ccc1O [LHRH-curcumin, [DLys6]-LHRH-Curcumin]
[1]; 24 h, 50 uM in the presence of gemcitabine (5 uM)
  XIAP and c-IAP2 protein levels: down-regulated
[1]; [4]
  XIAP and c-IAP2 protein levels: down-regulated
[1]; curcumin
  apoptosis marker cleaved PARP: initiate apoptosis as illustrated by the presence of cleaved PARP
[1]; 72 h, LHRH-curcumin 10 uM and 20 uM in the presence of gemcitabine (5 uM and 10 uM)
  XIAP and c-IAP2 protein levels: down-regulated
AsPC-1 spheroids
  size of the spheroids: decrease the size of the spheroids
PATX102 tissue slices; single agent
  Sensitivity To LHRH-C: Resistant
[2]; 48 h post-treatment, 30 μM
  apoptosis inhibitors (XIAP and cIAP2): Modest reduction of apoptosis inhibitors
PATX113 tissue slices; single agent
  Sensitivity To LHRH-C: Sensitive (The tissue was defined as sensitive to the treatment if both p<0.05 and at least 30% of tissue slice viability on average was inhibited)
PATX110 tissue slices; single agent
  Sensitivity To LHRH-C: Sensitive (The tissue was defined as sensitive to the treatment if both p<0.05 and at least 30% of tissue slice viability on average was inhibited)
PATX50 tissue slices; single agent
  Sensitivity To LHRH-C: Resistant
PATX141 tissue slices; single agent
  Sensitivity To LHRH-C: Resistant
PATX173 tissue slices; single agent
  Sensitivity To LHRH-C: Resistant
PATX55 tissue slices; single agent
  Sensitivity To LHRH-C: Sensitive (The tissue was defined as sensitive to the treatment if both p<0.05 and at least 30% of tissue slice viability on average was inhibited)
PATX92 tissue slices; single agent
  Sensitivity To LHRH-C: Resistant
[3]; [5]
  Tumor volume at necropsy: significantly reduced
[3]; [6]
  Tumor volume at necropsy: significantly reduced

## Nc1ccn([C@@H]2O[C@H](CO)[C@@H](O)C2(F)F)c(=O)n1 [gemcitabine, 2′,2′-difluoro 2′deoxycytidine, reference compound]
[1]; [4]
  XIAP and c-IAP2 protein levels: doesn't affect XIAP and c-IAP2 levels
[1]; curcumin
  apoptosis marker cleaved PARP: no cleaved PARP was detected
AsPC-1 spheroids
  size of the spheroids: decrease the size of the spheroids
PATX102 tissue slices; Gem 10 μM
  tissue slice viability: 99.65
[2]; 24 h post-treatment
  response of PATC53 cells (apoptosis markers): resistance
PATX113 tissue slices; Gem 10 μM
  tissue slice viability: 82.19
PATX110 tissue slices; Gem 10 μM
  tissue slice viability: 100.20
PATX50 tissue slices; Gem 10 μM
  tissue slice viability: 104.96
PATX141 tissue slices; Gem 10 μM
  tissue slice viability: 105.35
PATX173 tissue slices; Gem 10 μM
  tissue slice viability: 89.87
PATX55 tissue slices; Gem 10 μM
  tissue slice viability: 95.45
PATX92 tissue slices; Gem 10 μM
  tissue slice viability: 85.63
[3]; [5]
  Tumor volume at necropsy: significantly reduced
[3]; [6]
  Tumor volume at necropsy: significantly reduced
